From patent publication US12122741B2, “Therapeutic phenethylamine compositions and methods of use” (CYBIN IRL LIMITED, priority 2020, dated 2024)

Key:
[1] = in vitro liver metabolism (metabolic stability); type: in vitro ADME; conditions: rat liver microsomes, NADPH regenerating system, 0 to 60 min
Procedure: In Vitro Liver Metabolism and Kinetic Deuterium Isotope Effects Compounds (10 μl of 2 μM solution) are incubated in 200 μl of medium that contains […] rat liver microsomes, NADPH regenerating system (1 mM NADP, 1 unit/ml of isocitrate dehydrogenase, 5 mM isocitric acid, 5 mM magnesium chloride), and 25 mM of phosphate buffer (pH 7.4). The reaction is terminated at different time points (0 to 60 min) by the addition of 300 μl of acetonitrile. For the analyses of products, the precipitated salts and proteins are spun out on a centrifuge, the residual solution diluted with 300 μl of water and injected into the LC/MS (Agilent 1200 system interfaced with an ABS Sciex 4000 QTRAP LC/MS/MS Mass Spectrometer). The metabolic stability may be estimated by evaluating the rate of disappearance of the main parent peak.

[2] = molecular target: T1, serotonin 5-HT2A receptor (Mus musculus, UniProt P35363); assay: head-twitch response (HTR); type: in vivo, C57Bl/6J mice; conditions: for HTR compared to DOI (positive control, 1 mg/kg) / HTR compared to vehicle: HTRs counted for 15 minutes, adult male mice; for model fit of data (GraphPad Prism 9): FIG. 16 legend
T1 construct: tissue Jackson Laboratory; host or cells: living C57Bl/6J mice (whole animal, behavioural read-out)
T1 sequence (P35363 whole entry): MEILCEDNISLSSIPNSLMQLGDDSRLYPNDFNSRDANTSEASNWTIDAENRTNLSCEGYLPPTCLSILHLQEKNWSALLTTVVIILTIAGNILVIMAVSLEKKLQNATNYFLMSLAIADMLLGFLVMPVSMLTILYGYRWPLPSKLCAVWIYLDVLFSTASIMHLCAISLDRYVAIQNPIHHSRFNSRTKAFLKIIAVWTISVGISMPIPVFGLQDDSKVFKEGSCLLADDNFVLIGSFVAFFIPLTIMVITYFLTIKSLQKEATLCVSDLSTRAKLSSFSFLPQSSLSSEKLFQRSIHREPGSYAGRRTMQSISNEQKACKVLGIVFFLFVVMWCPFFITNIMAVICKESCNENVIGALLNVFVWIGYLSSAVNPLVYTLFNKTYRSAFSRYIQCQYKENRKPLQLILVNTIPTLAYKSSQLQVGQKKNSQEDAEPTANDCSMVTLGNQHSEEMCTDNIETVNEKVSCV
Procedure: The HTR assay was performed in adult, male C57Bl/6J mice, procured from the Jackson Laboratory (Bar Harbor, Maine), as previously described (Canal, C. E., and Morgan, D., 2012, Head-twitch response in rodents induced by the hallucinogen 2,5-dimethoxy-4-iodoamphetamine: a comprehensive history, a re-evaluation of mechanisms, and its utility as a model, Drug Test Anal 4, 556-576; Saraf, T. S., Felsing, D. E., Armstrong, J. L., Booth, R. G., and Canal, C. E., 2021, Evaluation of lorcaserin as an anticonvulsant in juvenile Fmr1 knockout mice, Epilepsy Res 175, 106677). Mice were housed in standard laboratory cages with ad libitum access to food and water, and were acclimated to the vivarium for at least one week prior to testing in a procedure room. On the day of testing, mice were acclimated to the procedure room in their home cages for ≥60 mi before administration of test compounds. Mice were injected subcutaneously, placed immediately thereafter in a clear, polycarbonate box (46×20×20 cm), and HTRs were counted for 15 consecutive minutes, using hand-held tally counters, by two trained observers who were blind to treatment.

[3] = molecular target: T2, human serotonin 5-HT2A receptor (Homo sapiens, UniProt P28223); assay: radioligand competition binding, [3H]Ketanserin; conditions: HEK293 membranes, [3H]Ketanserin ~1.6 nM
T2 construct: host or cells: HEK293 (ATCC CRL-1573), transient transfection, membrane preparation
T2 sequence (P28223 whole entry): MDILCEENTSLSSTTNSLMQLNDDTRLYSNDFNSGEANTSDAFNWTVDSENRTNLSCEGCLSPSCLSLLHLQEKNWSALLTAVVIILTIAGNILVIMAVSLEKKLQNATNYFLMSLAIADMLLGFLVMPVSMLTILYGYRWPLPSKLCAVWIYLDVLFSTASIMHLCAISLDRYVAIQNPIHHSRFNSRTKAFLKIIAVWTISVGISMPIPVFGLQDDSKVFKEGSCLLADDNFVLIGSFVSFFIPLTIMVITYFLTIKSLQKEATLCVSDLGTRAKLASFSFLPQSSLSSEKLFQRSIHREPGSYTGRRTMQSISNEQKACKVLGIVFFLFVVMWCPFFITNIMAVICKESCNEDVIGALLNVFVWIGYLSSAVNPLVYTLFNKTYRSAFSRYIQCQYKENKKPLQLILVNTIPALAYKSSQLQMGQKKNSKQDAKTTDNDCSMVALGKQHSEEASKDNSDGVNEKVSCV
Procedure: Radioligand competition binding was performed as previously described (Saraf, T. S., Felsing, D. E., Armstrong, J. L., Booth, R. G., and Canal, C. E., 2021, Evaluation of lorcaserin as an anticonvulsant in juvenile Fmr1 knockout mice, Epilepsy Res 175, 106677), with minor modifications. Plasmids encoding human serotonin 5-HT2A receptor cDNA were procured from the cDNA Resource Center. Human embryonic kidney cells (HEK293, ATCC CRL-1573) were grown in a cell incubator in 100 mm dishes with antibiotic-free Dulbecco's modified Eagle's medium containing 10% fetal bovine serum. Cells were transfected at ˜85% confluency with […] cDNA using TransIT-2020 reagent (Mirus Bio, Madison, Wisconsin). After approximately 48 hours, cell membrane was collected via centrifugation. For all experiments, serotonin (5-HT) hydrochloride was used as a positive control, and mianserin hydrochloride (10 μM) was used to define non-specific binding. Each cell membrane homogenate expressing 5-HT2A receptors was incubated in 96-well plates with [^3H]Ketanserin (PerkinElmer, Waltham, Massachusetts), ˜1.6 nM (its Kd at human 5-HT2A receptors), in the absence or presence of test compounds in a buffer. Following equilibration, each sample was filtered rapidly under vacuum through fiberglass filters presoaked in a buffer and rinsed several times with an ice-cold buffer using a cell harvester. Filters were soaked with scintillation fluid, and counts per minute were detected using photodetectors. IC50 values were computed using nonlinear, least squares regression analyses and then converted to Ki values using the Cheng-Prusoff equation (GraphPad Prism 9.0, San Diego, California).

[4] = cited from earlier work

Structure (SMILES) | half life longer than Reference Compound 2 (2C—B) [1] [%] | HTR compared to DOI (positive control, 1 mg/kg) ([2]; 3 mg/kg, subcutaneous) | HTR compared to vehicle ([2]; 3 mg/kg, subcutaneous) | model fit of data (GraphPad Prism 9) [2] | activity at serotonin 5-HT2A receptors (FIG. 17) [3] | difference in affinity between deuterated and non-deuterated compounds [3] | effect of deuteration of the 2,5-methoxy groups on HTR (versus Compound I-1) ([2]; 3 mg/kg, subcutaneous, 15 minutes) | activity after oral administration [4]
[2H]C([2H])([2H])Oc1cc(C([2H])([2H])C([2H])([2H])N)c(OC([2H])([2H])[2H])cc1Br [Compound II-14, 2-(4-bromo-2,5-bis(methoxy-d3)phenyl)ethan-1,1,2,2-d4-1-amine] | 50 | – | – | – | – | – | – | –
COc1cc(SC(F)(F)F)c(OC)cc1CCN [Compound I-1, 2-(2,5-dimethoxy-4-((trifluoromethyl)thio)phenyl)ethan-1-amine] | – | not statistically different from DOI | statistically different from vehicle | fit best to a two-site model | pronounced agonists | no significant differences in affinity | – | –
[2H]C([2H])([2H])Oc1cc(SC(F)(F)F)c(OC([2H])([2H])[2H])cc1CCN [Compound II-10, 2-(2,5-bis(methoxy-d3)-4-((trifluoromethyl)thio)phenyl)ethan-1-amine] | – | not statistically different from DOI | statistically different from vehicle | fit best to a two-site model | pronounced agonists | no significant differences in affinity | increased the HTR response | –
COc1cc(OC)c(OC)cc1CCN [2C—O] | – | – | – | – | – | – | – | inactive
